Measurements: patent US20240115549A1, “TREATMENT OF MENTAL DISORDERS” (GH Research Ireland Limited, priority 2022, published 2024)
“Also recorded” adds a separate entry of the source.

How the values were obtained:
[1] = tested on: human plasma protein; test: Plasma binding of 5-MIAA; type: in vitro ADME
Description: Binding to human plasma protein was determined. Reported are the unbound fraction (fu) for three replicates as well as the mean unbound fraction, the standard deviation and the mean % recovery (Table 8).

[2] = tested on: human hepatocytes; test: Metabolic stability in Hprel human hepatocyte co-culture; type: in vitro ADME; conditions: for Half-life / In vitro intrinsic clearance: human hepatocytes, 1 μM; for Predicted hepatic extraction ratio: human, Hprel HumanPool human hepatocyte co-culture; for Disappearance with stromal cell controls: stromal cells
Description: The incubations were performed using 1 and 10 μM initial concentrations and sampling at 0, 1, 2, 4, 8, 24, 48, and 72 hours (h) time points. The samples were analysed using UPLC/QE-orbitrap-MS.
The remaining LC/MS peak areas detected for test compounds after each incubation time point with Hprel co-culture assay, relative to corresponding 0 min incubation samples, are shown in the tables below.

[3] = tested on: human hepatocytes; test: Metabolism of 5-MeO-DMT in human hepatocytes in suspension; type: in vitro ADME; conditions: 5-MeO-DMT free base 10 μM incubated up to 120 minutes
Description: All samples were stored at −80° C. (nominal) prior to analysis.
Appropriate blank and control samples were also analysed. […] (nominal).

[4] = LC-MS/MS of 5-MeO-DMT, bufotenine and 5-MIAA in breastmilk, serum and urine of a treated PPD patient; infant dose estimates
[5] = 1.0 hrs after last dose, second PPD patient, inhaled 5-MeO-DMT, LC-MS/MS
[6] = 2.5 hrs after last dose, second PPD patient, inhaled 5-MeO-DMT, LC-MS/MS
[7] = 8.5 hrs after last dose, second PPD patient, inhaled 5-MeO-DMT, LC-MS/MS
[8] = 120.0 hrs after last dose, second PPD patient, inhaled 5-MeO-DMT, LC-MS/MS
[9] = timepoint −24.0 hrs (pre-dosing), second PPD patient, inhaled 5-MeO-DMT 6 mg then 12 mg, LC-MS/MS
[10] = serum, 1.0 hrs after last dose, second PPD patient, inhaled 5-MeO-DMT, LC-MS/MS
[11] = urine, 2.5 hrs after last dose, second PPD patient, inhaled 5-MeO-DMT, LC-MS/MS
[12] = 5 kg infant, three feeds of 250 ml

With `CC(=O)CC(c1ccccc1)c1c(O)c2ccccc2oc1=O` (centres unmarked) [Warfarin, reference compound] the “Mean % Recovery” value [1] was 78.1%, the Mean fu [1] was 0.0377 and the “Unbound fraction (fu), Replicate 1” value [1] was 0.0418. The “Unbound fraction (fu), Replicate 2” value [1] was 0.0356 and the “Unbound fraction (fu), Replicate 3” value [1] was 0.0358.

With `COc1ccc2[nH]cc(CCO)c2c1` [5-methoxytryptophol, 5-Methoxyindole-3-ethanol] the “Relative LC/MS peak area” value ([2]; 1 μM Hepatocytes, 1 h) was 79%, the “Relative LC/MS peak area” value ([2]; 1 μM Hepatocytes, 2 h) was 57% and the “Relative LC/MS peak area” value ([2]; 1 μM Hepatocytes, 4 h) was 33%. The “Relative LC/MS peak area” value ([2]; 1 μM Hepatocytes, 8 h) was 10%, the “Relative LC/MS peak area” value ([2]; 1 μM Hepatocytes, 24 h) was 0% and the “Relative LC/MS peak area” value ([2]; 1 μM Hepatocytes, 48 h) was 0%. The “Relative LC/MS peak area” value ([2]; 1 μM Hepatocytes, 72 h) was 0%, the “Relative LC/MS peak area” value ([2]; 1 μM Stromal cells, 4 h) was 97% and the “Relative LC/MS peak area” value ([2]; 1 μM Stromal cells, 8 h) was 107%. The “Relative LC/MS peak area” value ([2]; 1 μM Stromal cells, 24 h) was 94%, the “Relative LC/MS peak area” value ([2]; 1 μM Stromal cells, 48 h) was 102% and the “Relative LC/MS peak area” value ([2]; 1 μM Stromal cells, 72 h) was 104%. For the same molecule, the “Relative LC/MS peak area” value ([2]; 10 μM Hepatocytes, 1 h) was 87%, the “Relative LC/MS peak area” value ([2]; 10 μM Hepatocytes, 2 h) was 81% and the “Relative LC/MS peak area” value ([2]; 10 μM Hepatocytes, 4 h) was 68%. For the same molecule, the “Relative LC/MS peak area” value ([2]; 10 μM Hepatocytes, 8 h) was 42%, the “Relative LC/MS peak area” value ([2]; 10 μM Hepatocytes, 24 h) was 1% and the “Relative LC/MS peak area” value ([2]; 10 μM Hepatocytes, 48 h) was 0%. The “Relative LC/MS peak area” value ([2]; 10 μM Hepatocytes, 72 h) was 0%, the “Relative LC/MS peak area” value ([2]; 10 μM Stromal cells, 4 h) was 99% and the “Relative LC/MS peak area” value ([2]; 10 μM Stromal cells, 8 h) was 105%. The “Relative LC/MS peak area” value ([2]; 10 μM Stromal cells, 24 h) was 86%, the “Relative LC/MS peak area” value ([2]; 10 μM Stromal cells, 48 h) was 98% and the “Relative LC/MS peak area” value ([2]; 10 μM Stromal cells, 72 h) was 104%. The Half-life [2] was 142 min, the “In vitro intrinsic clearance” value [2] was 16.2 μl/min/million cells and the “Predicted hepatic extraction ratio” value [2] was 67%. The Metabolic turnover ([2]; in the presence of hepatocytes) was “high metabolic turnover”, the “Time to complete disappearance” value ([2]; in the presence of hepatocytes) was ≤ 24 h and the “Disappearance with stromal cell controls” value [2] was “no disappearance”. For the same molecule, the “Relative Proportion of compounds identified” value (“Relative Proportion” below) [3] was 25%.

In the case of `CN(C)CCc1c[nH]c2ccc(O)cc12` [bufotenine], the Detection in breastmilk ([4]; any time point) is reported as “not detected; also recorded: absence”, the Detection in serum ([4]; any time point) is reported as “not detected” and the Breastmilk concentration [4, 5] is reported as “BLQ”. For the same molecule, the Breastmilk concentration [4, 6] was “BLQ”, the Breastmilk concentration [4, 7] was “BLQ” and the Breastmilk concentration ([4]; 24.0 hrs after last dose, second PPD patient, inhaled 5-MeO-DMT, LC-MS/MS) was “BLQ”. For the same molecule, the Breastmilk concentration [4, 8] was “BLQ”, the Breastmilk concentration [4, 9] was “BLQ” and the Serum concentration [4, 10] was “BLQ”. For the same molecule, the Serum concentration ([4]; serum, 2.5 hrs after last dose, second PPD patient, inhaled 5-MeO-DMT, LC-MS/MS) was “BLQ”, the Serum concentration ([4]; serum, 24.0 hrs after last dose, second PPD patient, inhaled 5-MeO-DMT, LC-MS/MS) was “BLQ” and the Serum concentration ([4]; serum, 120.0 hrs after last dose, second PPD patient, inhaled 5-MeO-DMT, LC-MS/MS) was “BLQ”. The Serum concentration ([4]; serum, timepoint −24.0 hrs (pre-dosing), second PPD patient, inhaled 5-MeO-DMT 6 mg then 12 mg, LC-MS/MS) was “BLQ”, the Urine concentration [4, 11] was 32.3 pg/mL and the Urine concentration ([4]; urine, 8.5 hrs after last dose, second PPD patient, inhaled 5-MeO-DMT, LC-MS/MS) was “BLQ”. The Urine concentration ([4]; urine, 24.0 hrs after last dose, second PPD patient, inhaled 5-MeO-DMT, LC-MS/MS) was “BLQ”, the Urine concentration ([4]; urine, 120.0 hrs after last dose, second PPD patient, inhaled 5-MeO-DMT, LC-MS/MS) was “BLQ” and the Urine concentration ([4]; urine, timepoint −24.0 hrs (pre-dosing), second PPD patient, inhaled 5-MeO-DMT 6 mg then 12 mg, LC-MS/MS) was “BLQ”. For the same molecule, the “Relative Proportion” value [3] was 5%.

With `COc1ccc2[nH]cc(CC[N+](C)(C)[O-])c2c1` [5-MeO-DMT-N-oxide] the “Relative Proportion” value [3] was 1%.

With `COc1ccc2[nH]cc(CC(=O)O)c2c1` [5-MIAA, 5-methoxyindole-3-acetic acid] the “Relative LC/MS peak area” value ([2]; 1 μM Hepatocytes, 1 h) was 98%, the “Relative LC/MS peak area” value ([2]; 1 μM Hepatocytes, 2 h) was 100% and the “Relative LC/MS peak area” value ([2]; 1 μM Hepatocytes, 4 h) was 99%. The “Relative LC/MS peak area” value ([2]; 1 μM Hepatocytes, 8 h) was 95%, the “Relative LC/MS peak area” value ([2]; 1 μM Hepatocytes, 24 h) was 99% and the “Relative LC/MS peak area” value ([2]; 1 μM Hepatocytes, 48 h) was 88%. For the same molecule, the “Relative LC/MS peak area” value ([2]; 1 μM Hepatocytes, 72 h) was 82%, the “Relative LC/MS peak area” value ([2]; 1 μM Stromal cells, 4 h) was 103% and the “Relative LC/MS peak area” value ([2]; 1 μM Stromal cells, 8 h) was 107%. The “Relative LC/MS peak area” value ([2]; 1 μM Stromal cells, 24 h) was 108%, the “Relative LC/MS peak area” value ([2]; 1 μM Stromal cells, 48 h) was 111% and the “Relative LC/MS peak area” value ([2]; 1 μM Stromal cells, 72 h) was 135%. The “Relative LC/MS peak area” value ([2]; 10 μM Hepatocytes, 1 h) was 97%, the “Relative LC/MS peak area” value ([2]; 10 μM Hepatocytes, 2 h) was 100% and the “Relative LC/MS peak area” value ([2]; 10 μM Hepatocytes, 4 h) was 103%. The “Relative LC/MS peak area” value ([2]; 10 μM Hepatocytes, 8 h) was 96%, the “Relative LC/MS peak area” value ([2]; 10 μM Hepatocytes, 24 h) was 96% and the “Relative LC/MS peak area” value ([2]; 10 μM Hepatocytes, 48 h) was 86%. For the same molecule, the “Relative LC/MS peak area” value ([2]; 10 μM Hepatocytes, 72 h) was 75%, the “Relative LC/MS peak area” value ([2]; 10 μM Stromal cells, 4 h) was 101% and the “Relative LC/MS peak area” value ([2]; 10 μM Stromal cells, 8 h) was 106%. For the same molecule, the “Relative LC/MS peak area” value ([2]; 10 μM Stromal cells, 24 h) was 97%, the “Relative LC/MS peak area” value ([2]; 10 μM Stromal cells, 48 h) was 103% and the “Relative LC/MS peak area” value ([2]; 10 μM Stromal cells, 72 h) was 115%. For the same molecule, the “Remaining abundance after 72 h” value ([2]; hepatocytes, 1 and 10 μM) was 75-82%, the Half-life [2] was 15 400 min and the “In vitro intrinsic clearance” value [2] was 0.15 μl/min/million cells. The “Predicted hepatic extraction ratio” value [2] was 2%, the Metabolic turnover ([2]; in the presence of hepatocytes) was “low metabolic turnover” and the “Disappearance with stromal cell controls” value [2] was “no disappearance”. For the same molecule, the “DID per kg infant weight” value [4, 12] was 0.001377 mg/kg/day, the “Total exposure of the infant (DID)” value [4, 12] was 0.006886 mg/day and the “Concentration in breast milk” value ([4]; 1 hour after last dose (6 mg + 12 mg 5-MeO-DMT)) was 13.9452 ng/mL. For the same molecule, the “Peak urine concentration relative to serum” value ([4]; 2.5 hours) was “approx. 127 times”, the “Concentration in breast milk” value ([4]; 2.5 hours after last dose) was 13.2409 ng/mL and the Urine concentration ([4]; 2.5 hours after last dose) was 12 980 501 pg/ml. The “Concentration in breast milk” value ([4]; 8.5 hours after last dose) was 0.3594 ng/mL, the Breastmilk concentration [4, 5] was 13945.2 pg/mL and the Breastmilk concentration [4, 6] was 13240.9 pg/mL. The Breastmilk concentration [4, 7] was 359.4 pg/mL, the Breastmilk concentration [4, 8] was “BLQ” and the Breastmilk concentration [4, 9] was “BLQ”. The concentration at 24 h ([4]; female, human, breast milk, inhaled) was 0.0355 ng/mL, the concentration at 2.5 h ([4]; female, human, serum, inhaled) was 102 ng/mL and the concentration at 24 h ([4]; female, human, serum, inhaled) was 0.271 ng/mL. It also gave a concentration at 120 h ([4]; female, human, serum, inhaled) of 0.0671 ng/mL, a concentration at 2.5 h ([4]; female, human, urine, inhaled) of ~13000 ng/mL and a concentration at 8.5 h ([4]; female, human, urine, inhaled) of 292 ng/mL. It also gave a concentration at 24 h ([4]; female, human, urine, inhaled) of 18.6 ng/mL, a concentration at 120 h ([4]; female, human, urine, inhaled) of 9.44 ng/mL and a Serum concentration [4, 10] of 263.092 ng/mL. For the same molecule, the Urine concentration [4, 11] was 12980501 pg/mL, the “Mean % Recovery” value [1] was 81.4% and the Mean fu [1] was 0.502. For the same molecule, the “Plasma binding (mean fraction unbound)” value [1] was ~50%, the “Unbound fraction (fu), Replicate 1” value [1] was 0.499 and the “Unbound fraction (fu), Replicate 2” value [1] was 0.462. For the same molecule, the “Unbound fraction (fu), Replicate 3” value [1] was 0.544, the “Relative Proportion” value [3] was “about 60%” and the “Relative Proportion” value ([3]; listed as 5-Methoxyindole acetic acid (5-MIAA)) was 61%.
